The values that follow come from patent US20190183843A9, “USE OF DIANHYDROGALACTITOL OR DERIVATIVES OR ANALOGS THEREOF FOR TREATMENT OF PEDIATRIC CENTRAL NERVOUS SYSTEM MALIGNANCIES” (DelMar Pharmaceuticals, Inc., priority 2015, published 2019).

SMILES strings stand for the structures. pIC50: −log10 of the molar value. Read-outs that look alike come from different tables or passages of the source.

The target of data set [1] is glycogen synthase kinase-30 (GSK-30) (Homo sapiens, UniProt P49841). To be noted: cited from earlier work.
Chain of glycogen synthase kinase-30 (GSK-30) (P49841 whole entry): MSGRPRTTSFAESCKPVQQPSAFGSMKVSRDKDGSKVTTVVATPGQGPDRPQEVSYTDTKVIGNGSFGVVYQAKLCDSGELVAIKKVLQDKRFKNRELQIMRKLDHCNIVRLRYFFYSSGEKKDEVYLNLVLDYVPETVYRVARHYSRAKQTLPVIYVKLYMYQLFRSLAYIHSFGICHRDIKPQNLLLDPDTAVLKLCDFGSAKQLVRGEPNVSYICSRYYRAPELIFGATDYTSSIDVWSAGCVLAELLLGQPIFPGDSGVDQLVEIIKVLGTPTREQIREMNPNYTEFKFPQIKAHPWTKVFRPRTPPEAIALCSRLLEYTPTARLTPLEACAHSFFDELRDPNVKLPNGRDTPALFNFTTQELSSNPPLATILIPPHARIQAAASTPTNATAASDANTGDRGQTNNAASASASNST
Data set [2] has as its system cisplatin-resistant 2780CP-16, OVCAR-10, Hey and OVCA-433 tumor models. The data set is described as follows: MTT growth inhibition assay, 5-day drug exposure. Type of data set: cell-based, human. To be noted: 5-day exposure. From the text:
(§1) The analysis of cytotoxicity, depicted as IC50 (concentration inhibiting growth of cells by 50%) or as fraction of cells affected (Fa) at a specified concentration of drug, is based on the data generated from the MTT growth inhibition assay following a 5-day drug exposure period. The IC50 values were generated by fitting Fa values from a range of drug concentrations to a four-parameter logistic dose-response sigmoidal equation using the Graphpad Prism v.6 software. Resistance factors (for the ovarian panel) were calculated as the ratio of IC50 in the specific tumor model to the IC50 in A2780.
(§2) Cytotoxicity was determined against cisplatin-sensitive A2780 and cisplatin-resistant 2780CP-16, OVCAR-10, Hey and OVCA-433 tumor models with different status for p53 and mismatch repair (MMR) DNA repair system (A2780: p53 wild-type, MMR proficient; 2780CP-16: heterogenic p53 wt/V172Fmut, MMR deficient; OVCAR-10: p53 V172F mutant, MMR proficient; HEY: p53 P72R mutant, MMR proficient; OVCA-433: p53 P72R mutant, MMR proficient). IC50 for dianhydrogalactitol was about 0.5 μM in A2780 cells and in the 2-4 μM range for the cisplatin-resistant models. The activity (as IC50) of dianhydrogalactitol relative to cisplatin and oxaliplatin is shown as bar plots in FIG. 38. […] Oxaliplatin, in contrast, had good potencies against both cisplatin-sensitive (0.2 μM) and cisplatin-resistant cells (0.2-0.6 μM).
A general note: Tetrazolium assays rely on reduction of a dye to a coloured formazan, in cell work by metabolically active cells.

Data set [3] relates to MGMT-positive or -negative, MMR-proficient or -deficient cells. The conditions noted are these: cited from earlier work.
The conditions of data set [4]: cited from earlier work.
Another data set relates to A2780 cells. Put plainly: MTT growth inhibition assay, 5-day drug exposure. The format is cell-based, human. To be noted: 5-day exposure, cisplatin-sensitive A2780.
Text: as §1, §2

As for `CN1C(=O)/C(=C2/C(=O)Nc3ccccc32)c2ccccc21` [Meisoindigo], in data set [1], the “concentration inhibiting GSK” value was 5 to 50 nM.

Consider `N.N.[Cl][Pt][Cl]` [cisplatin], for which the pIC50 in data set [2] was 5.10 to 5.52. The sensitivity result in data set [3] (MGMT Negative, MMR-Deficient) was “Resistant”; in data set [3] (MGMT Negative, MMR-Proficient), “Sensitive”; in data set [3] (MGMT Positive, MMR-Deficient), “Resistant”; in data set [3] (MGMT Positive, MMR-Proficient), “Sensitive”.

With `O[C@H]([C@H](O)[C@@H](O)CBr)[C@H](O)CBr` [dibromodulcitol], the “absorption by the oral route” value in data set [4] was “rapid and fairly complete”.

As for `O=C1[O][Pt]2([NH][C@@H]3CCCC[C@H]3[NH]2)[O]C1=O` [oxaliplatin, reference compound], the negative logarithm of the IC50 (pIC50) is 6.70 in the data set on A2780 cells and 6.22 to 6.70 in data set [2].

For orientation: pIC50 means the negative decadic logarithm of the IC50, by convention in mol/L. High values mean a small IC50, low ones a large IC50.
